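Exposure lasted 48 hours, with cells grown in 96-well plates and compounds tested at five concentrations. GI50 marks 50% less growth.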 Activity calls are given as the source filed them. Cut-off read from the data, not from the text of the source: active = GI50 up to about 1.1 µM and inactive = higher. Some results are limits rather than exact numbers.

The text below walks through data of ChEMBL document CHEMBL1201862, “PubChem BioAssay data set” (2004).

Test systems include MOLT-4; MDA-MB-231; OVCAR-5; NCI-H460; OVCAR-8; CCRF-CEM; CAKI-1; HCT-116; Hs-578T; UACC-257; A498; A549; M14; COLO 205; SF-295; 786-0; TK-10; UO-31; SF-268; HOP-92.
Holding throughout (assay): DTP human tumour cell line panel, 48 h

The term GI50 denotes the concentration giving 50% growth inhibition. As for `CNC(=O)N(CCC#N)CCCN(C(=O)N(C)C)c1ccccc1`, the GI50 in the assay with MOLT-4, in the assay with MDA-MB-231, in the assay with OVCAR-5, with NCI-H460, in the assay with OVCAR-8 and in the assay on CCRF-CEM was > 100 µM (inactive) throughout. For the same compound, the GI50 in the assay on CAKI-1, in the assay with HCT-116, with Hs-578T, in the assay with UACC-257, with A498 and in the assay on A549 was > 100 µM (inactive) each time. Also, the GI50 in the assay on M14, in the assay on COLO 205, with SF-295, with 786-0, in the assay with TK-10 and with UO-31 was > 100 µM (inactive) throughout. The GI50 in the assay with SF-268 and in the assay on HOP-92 was > 100 µM (inactive) in each case.
Turning to `CC(C)C[C@H](NC(=O)[C@H](Cc1cccc2ccccc12)NC(=O)N1CCOCC1)B(O)O`, the GI50 in the assay with MOLT-4 is < 0.01 µM (active); in the assay on MDA-MB-231, < 0.01 µM (active); in the assay on OVCAR-5, < 0.01 µM (active); in the assay on NCI-H460 it was < 0.012 µM (active); in the assay on OVCAR-8, < 0.0128 µM (active); with CCRF-CEM, < 0.01 µM (active). Moreover, the GI50 in the assay on CAKI-1 is < 0.0126 µM (active); in the assay with HCT-116 it was < 0.01 µM (active); with Hs-578T, < 0.01 µM (active); in the assay on UACC-257, < 0.01 µM (active); in the assay with A498, < 0.01 µM (active); in the assay with A549 it was < 0.0107 µM (active). The GI50 in the assay with M14 is < 0.01 µM (active); in the assay on COLO 205, 0.0122 µM (active); in the assay on SF-295 it was 0.00348 µM (active); with 786-0, 0.00362 µM (active); with TK-10, < 0.01 µM (active); in the assay with UO-31, 0.0313 µM (active). The GI50 in the assay with SF-268 and in the assay on HOP-92 was < 0.01 µM (active) in each case.
Consider `CN(C)CCOc1ccc(-c2c(Oc3ccccc3)c(=O)oc3ccccc23)cc1`, for which the GI50 in the assay with MOLT-4 was 4.13 µM (inactive); in the assay on MDA-MB-231, 4.93 µM (inactive); in the assay on OVCAR-5, 15 µM (inactive); with NCI-H460, 13.5 µM (inactive); in the assay on OVCAR-8, 15.6 µM (inactive); with CCRF-CEM, 0.459 µM (active). For the same compound, the GI50 with CAKI-1 is 22.3 µM (inactive); with HCT-116, 4.83 µM (inactive); in the assay on Hs-578T, 17.8 µM (inactive); in the assay with UACC-257, 6.67 µM (inactive); with A498, 13.4 µM (inactive); in the assay with A549 it was 4.15 µM (inactive). Moreover, the GI50 is 2.23 µM (inactive) in the assay on M14; 11 µM (inactive) in the assay on COLO 205; 4.42 µM (inactive) with SF-295; 8.39 µM (inactive) in the assay on 786-0; 13.6 µM (inactive) in the assay with TK-10; 7.33 µM (inactive) in the assay on UO-31. Also, the GI50 is 12.8 µM (inactive) in the assay with SF-268 and 17.2 µM (inactive) in the assay on HOP-92.
For `CCCCCCN(CCCCCC)C(=S)N/N=C(\C)c1ccccn1`, the GI50 with MOLT-4 is 0.179 µM (active); in the assay with MDA-MB-231 it was 1.15 µM (inactive); in the assay with OVCAR-5, 1.63 µM (inactive); in the assay with NCI-H460, 1.09 µM (active); in the assay with OVCAR-8, 0.815 µM (active); in the assay with CCRF-CEM, 0.161 µM (active). Besides, the GI50 with CAKI-1 was 0.836 µM (active); with HCT-116, 1.09 µM (active); in the assay on Hs-578T, 1.09 µM (active); in the assay on UACC-257, 1.6 µM (inactive); with A498, 1.86 µM (inactive); with A549 it was 1.52 µM (inactive). Besides, the GI50 with M14 is 0.76 µM (active); in the assay on COLO 205, 0.321 µM (active); with SF-295, 1.53 µM (inactive); with 786-0, 0.971 µM (active); in the assay on TK-10, 0.993 µM (active); in the assay with UO-31 it was 0.344 µM (active). Moreover, the GI50 with SF-268 is 0.345 µM (active); with HOP-92, 0.906 µM (active).
For the compound `O=C(O)c1c(-c2nccc3ccccc23)[nH]c(-c2ccccc2)c1S(=O)(=O)O`, the GI50 in the assay on MOLT-4 was 47.6 µM (inactive); with MDA-MB-231, > 100 µM (inactive); in the assay with OVCAR-5, > 100 µM (inactive); in the assay with NCI-H460, > 100 µM (inactive); in the assay with OVCAR-8, > 100 µM (inactive); with CCRF-CEM it was > 100 µM (inactive). The GI50 in the assay on CAKI-1, with HCT-116, with Hs-578T, in the assay with UACC-257, with A498 and in the assay on A549 was > 100 µM (inactive) throughout. The GI50 in the assay on M14, with COLO 205, with SF-295, in the assay with 786-0, with TK-10 and with UO-31 was > 100 µM (inactive) throughout. For the same compound, the GI50 in the assay with SF-268 and with HOP-92 was > 100 µM (inactive) throughout.
For `O=[N+]([O-])c1cc(Cl)cc2c1nc(NCCO)c1ccccc12`, the GI50 was 3.78 µM (inactive) in the assay with MOLT-4; 21.1 µM (inactive) with MDA-MB-231; 9.18 µM (inactive) in the assay on OVCAR-5; 2.58 µM (inactive) in the assay with NCI-H460; 16.3 µM (inactive) in the assay with OVCAR-8; 16.7 µM (inactive) in the assay on CCRF-CEM. For the same compound, the GI50 with CAKI-1 was 16.5 µM (inactive); in the assay with HCT-116, 4.78 µM (inactive); with Hs-578T, 28.9 µM (inactive); in the assay on UACC-257, 13.8 µM (inactive); in the assay with A498 it was 10.3 µM (inactive); with A549, 2.95 µM (inactive). Besides, the GI50 with M14 was 8.45 µM (inactive); with COLO 205, 0.0435 µM (active); with SF-295, 13.1 µM (inactive); with 786-0 it was 6.81 µM (inactive); with TK-10 it was 10.8 µM (inactive); with UO-31 it was 24.1 µM (inactive). Further, the values for the GI50 with SF-268 and with HOP-92 were 23.8 µM (inactive) and 15.6 µM (inactive), respectively.
Consider `O=C1c2ccccc2-[n+]2ccc3c([nH]c4ccccc43)c21` [FASCAPLYSIN CHLORIDE], for which the GI50 is 0.285 µM (active) in the assay with MOLT-4; 0.22 µM (active) in the assay on MDA-MB-231; 0.48 µM (active) in the assay with OVCAR-5; 0.263 µM (active) with NCI-H460; 0.439 µM (active) with OVCAR-8; 0.337 µM (active) with CCRF-CEM. Further, the GI50 with CAKI-1 is 0.659 µM (active); in the assay with HCT-116, 0.195 µM (active); in the assay with Hs-578T, 1.24 µM (inactive); with UACC-257 it was 0.327 µM (active); in the assay with A498, 1.58 µM (inactive); with A549, 0.565 µM (active). Besides, the GI50 in the assay with M14 was 0.159 µM (active); with COLO 205, 0.21 µM (active); in the assay on SF-295 it was 0.232 µM (active); in the assay with 786-0, 0.427 µM (active); with TK-10, 1.14 µM (inactive); in the assay on UO-31, 0.682 µM (active). The GI50 in the assay with SF-268 is 0.247 µM (active); with HOP-92, 1.66 µM (inactive).
